Test results as given in ChEMBL document CHEMBL1201862, “PubChem BioAssay data set” (2004).
Blank lines part the entries; values can stand above or below the compound they belong to. Activity calls are given as the source filed them.

Experiments:
[1] = biological target: T1, Tyrosine-protein phosphatase non-receptor type 7 (Homo sapiens, UniProt P35236); type: functional
T1 sequence (P35236 whole entry): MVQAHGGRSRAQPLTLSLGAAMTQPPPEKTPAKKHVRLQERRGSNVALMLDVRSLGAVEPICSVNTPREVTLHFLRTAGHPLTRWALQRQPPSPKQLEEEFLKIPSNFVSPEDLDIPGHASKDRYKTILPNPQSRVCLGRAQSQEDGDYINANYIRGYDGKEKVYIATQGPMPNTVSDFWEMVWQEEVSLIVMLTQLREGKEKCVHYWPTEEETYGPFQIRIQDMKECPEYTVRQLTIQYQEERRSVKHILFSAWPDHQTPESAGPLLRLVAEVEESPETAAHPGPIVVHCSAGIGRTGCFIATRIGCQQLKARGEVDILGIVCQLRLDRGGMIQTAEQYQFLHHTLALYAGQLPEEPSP

[2] = biological target: Glyceraldehyde-3-phosphate dehydrogenase (Homo sapiens, UniProt P04406)
[3] = biological target: T2, Dual specificity protein phosphatase 6 (Rattus norvegicus, UniProt Q64346)
[4] = biological target: T2, Dual specificity protein phosphatase 6; type: functional
[5] = biological target: T3, Endoribonuclease toxin MazF (Escherichia coli K-12, UniProt P0AE70); assay: MazF toxin RNase activators, dose response, biochemical, fluorescence, single-stranded RNA substrate, uHTS hits (AID 588481); type: functional
[6] = biological target: T3, Endoribonuclease toxin MazF; assay: fluorescent RNA oligo signal without MazF, dose response, counter-screen for MazEF activator project, biochemical, fluorescence, single-stranded RNase substrate (AID 588502); type: functional
[7] = biological target: T4, Corticotropin-releasing factor receptor 2/Corticotropin-releasing factor-binding protein (Homo sapiens, UniProt P24387+Q13324); assay: activators of CRF receptor 2 with binding protein – uHTS hits, confirmation (AID 602473); type: functional; details: read-out: EC50_Mean
T4 sequence (Q13324 whole entry): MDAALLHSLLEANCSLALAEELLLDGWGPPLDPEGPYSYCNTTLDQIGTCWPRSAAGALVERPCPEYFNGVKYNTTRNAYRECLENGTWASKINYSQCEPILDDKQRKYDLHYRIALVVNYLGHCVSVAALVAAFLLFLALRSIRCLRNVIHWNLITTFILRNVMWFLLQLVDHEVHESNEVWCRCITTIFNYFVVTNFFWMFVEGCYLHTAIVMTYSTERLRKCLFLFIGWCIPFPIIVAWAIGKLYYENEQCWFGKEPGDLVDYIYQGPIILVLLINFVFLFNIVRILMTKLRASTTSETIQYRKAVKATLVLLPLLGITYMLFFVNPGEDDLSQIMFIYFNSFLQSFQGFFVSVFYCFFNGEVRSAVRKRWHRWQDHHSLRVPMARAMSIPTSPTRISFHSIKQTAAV
T4 sequence (P24387 whole entry): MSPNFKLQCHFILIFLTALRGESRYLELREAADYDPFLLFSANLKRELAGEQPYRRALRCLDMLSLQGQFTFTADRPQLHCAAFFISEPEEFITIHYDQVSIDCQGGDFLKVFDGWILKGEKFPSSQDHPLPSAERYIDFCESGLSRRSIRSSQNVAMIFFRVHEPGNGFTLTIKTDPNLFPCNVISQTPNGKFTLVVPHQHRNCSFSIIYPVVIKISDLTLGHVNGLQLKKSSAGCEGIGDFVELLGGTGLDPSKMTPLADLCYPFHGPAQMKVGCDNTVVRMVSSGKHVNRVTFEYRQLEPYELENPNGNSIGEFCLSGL

[8] = cytotoxicity in HPDE-C7 cells, cell-based, fluorescence, HTS (AID 430); type: functional; details: Homo sapiens
[9] = cytotoxicity in KRAS-transformed pancreatic duct cells, primary screen, cell-based, fluorescence, HTS (AID 431); type: functional; details: Homo sapiens;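 further: cell line used: HPDE-C7K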
[10] = growth suppression of PTEN-null colon cells, dose response, cell-based, HCT116 PTEN knockout (AID 1047); type: functional;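 further: HCT116 colon tumor cells with PTEN knocked out; cells exposed to compound for 60 hours before readout; potency for loss of cell viability measured by luminescence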
[11] = growth suppression of beta-catenin-knockout colon cells, dose response, cell-based, HCT116, human colon tumor (AID 1045); type: functional;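 further: HCT116 colon tumor cells with beta catenin knocked out; cells exposed to compound for 60 hours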
HEK293 = assay: inhibitors of LMP1-driven NF-kB reporter, dose response, cell-based, HEK293, luciferase, cherry-pick (AID 588343); type: functional; details: Homo sapiens
[12] = biological target: Latent membrane protein 1 (Human herpesvirus 4 (strain B95-8), UniProt P03230); assay: TES1-eGFP NF-kB reporter inhibition versus Tet-On dsRED, dose response, selectivity assay for LMP1 NF-kB inhibitor project, imaging, HEK293T, dual-color eGFP/dsRED, cherry-picks (AID 588398); type: functional, cell-based
[13] = NIH-3T3 fibroblast cytotoxicity, dose response, cytotoxicity control, cell-based, fluorescence, Alamar Blue, secondary assay (AID 2327); type: functional;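 further: NIH-3T3 mouse fibroblasts cultured with fluconazole at 8 µg/mL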
[14] = C. albicans growth with fluconazole, confirmation, fluorescence, retest (AID 2467); type: functional, cell-based
[15] = biological target: T5, Serine/threonine-protein phosphatase (Candida dubliniensis (strain CD36 / CBS 7987 / NCPF 3949 / NRRLY-17841) (Yeast), UniProt B9W6M3); assay: calcineurin pathway inhibitors in yeast reporter, dose response, S. cerevisiae, CDRE-lacZ, luminescence, secondary (AID 2388); type: functional, cell-based;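 further: yeast reporter cells carrying a calcineurin-responsive lacZ construct stimulated with calcium chloride; luminescent beta-galactosidase reporter signal in whole cells rather than isolated phosphatase activity; potency for inhibition where a drop in reporter signal means calcineurin blockade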
T5 sequence (B9W6M3 whole entry): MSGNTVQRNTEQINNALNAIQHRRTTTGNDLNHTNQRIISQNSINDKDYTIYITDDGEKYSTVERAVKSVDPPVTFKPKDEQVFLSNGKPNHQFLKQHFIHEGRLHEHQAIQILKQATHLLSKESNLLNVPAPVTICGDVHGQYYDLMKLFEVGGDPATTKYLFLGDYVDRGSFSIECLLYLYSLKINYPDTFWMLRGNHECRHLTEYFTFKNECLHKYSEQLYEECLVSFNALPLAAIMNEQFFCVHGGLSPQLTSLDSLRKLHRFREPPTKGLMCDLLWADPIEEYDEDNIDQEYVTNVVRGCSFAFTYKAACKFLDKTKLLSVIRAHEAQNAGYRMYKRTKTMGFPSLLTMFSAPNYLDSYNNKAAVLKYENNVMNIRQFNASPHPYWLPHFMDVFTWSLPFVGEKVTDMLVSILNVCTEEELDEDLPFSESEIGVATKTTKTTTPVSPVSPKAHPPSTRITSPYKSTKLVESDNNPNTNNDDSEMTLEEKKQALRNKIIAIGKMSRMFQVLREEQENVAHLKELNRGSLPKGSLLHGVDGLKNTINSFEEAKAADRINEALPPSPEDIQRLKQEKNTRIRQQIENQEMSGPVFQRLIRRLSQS

[16] = Luminescence Cell-Based Dose Retest to Confirm Inhibitors of Cancer Stem Cells. [Related pubchem assays (depositor defined):AID2717, AID2721]; type: functional; details: Homo sapiens
[17] = biological target: T5, Serine/threonine-protein phosphatase; assay: Fluorescence Cell-Based Secondary Assay to Identify Inhibitors of Calcineurin. [Related pubchem assays (depositor defined):AID1979, AID2007]; type: functional
[18] = biological target: ATP-dependent molecular chaperone HSP82 (Candida albicans (strain WO-1) (Yeast), UniProt C4YTQ8); assay: loss of DOC-induced GRE-beta-galactosidase reporter signal, dose response, Hsp90 inhibitor project, S. cerevisiae, luminescence (AID 2400); type: functional, cell-based;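 further: beta-galactosidase luminescence from glucocorticoid response element reporter as proxy for Hsp90 function; inhibitor potency where signal loss means Hsp90 inhibition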
Chain of ATP-dependent molecular chaperone HSP82 (C4YTQ8 whole entry): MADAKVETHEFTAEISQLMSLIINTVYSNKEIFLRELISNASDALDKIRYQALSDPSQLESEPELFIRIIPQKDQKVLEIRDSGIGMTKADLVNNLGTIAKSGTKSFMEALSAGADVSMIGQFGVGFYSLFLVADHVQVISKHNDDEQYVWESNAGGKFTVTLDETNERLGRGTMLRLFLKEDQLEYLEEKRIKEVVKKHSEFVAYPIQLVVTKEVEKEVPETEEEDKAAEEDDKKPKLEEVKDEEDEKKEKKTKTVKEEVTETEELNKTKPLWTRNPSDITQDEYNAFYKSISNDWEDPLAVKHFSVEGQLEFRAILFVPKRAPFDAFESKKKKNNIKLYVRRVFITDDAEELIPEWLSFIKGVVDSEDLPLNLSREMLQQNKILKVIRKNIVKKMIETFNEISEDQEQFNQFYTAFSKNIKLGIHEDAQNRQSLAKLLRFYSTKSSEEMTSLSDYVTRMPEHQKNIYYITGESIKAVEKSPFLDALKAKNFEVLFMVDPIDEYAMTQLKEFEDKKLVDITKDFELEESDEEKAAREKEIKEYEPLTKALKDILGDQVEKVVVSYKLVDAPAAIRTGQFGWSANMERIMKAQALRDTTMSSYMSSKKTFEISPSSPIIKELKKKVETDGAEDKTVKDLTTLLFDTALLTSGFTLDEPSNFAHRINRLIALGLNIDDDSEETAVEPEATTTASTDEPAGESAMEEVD

T2 sequence (Q64346 whole entry): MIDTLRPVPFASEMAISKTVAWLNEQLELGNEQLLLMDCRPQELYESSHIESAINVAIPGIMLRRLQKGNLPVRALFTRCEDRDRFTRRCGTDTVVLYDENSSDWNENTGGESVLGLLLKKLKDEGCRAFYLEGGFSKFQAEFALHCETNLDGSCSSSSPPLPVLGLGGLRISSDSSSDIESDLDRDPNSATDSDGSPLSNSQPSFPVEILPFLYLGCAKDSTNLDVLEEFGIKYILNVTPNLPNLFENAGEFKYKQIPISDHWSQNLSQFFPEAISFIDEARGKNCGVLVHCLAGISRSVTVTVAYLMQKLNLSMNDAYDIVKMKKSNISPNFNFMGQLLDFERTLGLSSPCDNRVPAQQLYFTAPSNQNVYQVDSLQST
T3 sequence (P0AE70 whole entry): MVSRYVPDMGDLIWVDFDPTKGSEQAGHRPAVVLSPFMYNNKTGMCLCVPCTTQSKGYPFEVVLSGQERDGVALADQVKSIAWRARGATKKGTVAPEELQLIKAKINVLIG
Chain of Latent membrane protein 1 (P03230 whole entry): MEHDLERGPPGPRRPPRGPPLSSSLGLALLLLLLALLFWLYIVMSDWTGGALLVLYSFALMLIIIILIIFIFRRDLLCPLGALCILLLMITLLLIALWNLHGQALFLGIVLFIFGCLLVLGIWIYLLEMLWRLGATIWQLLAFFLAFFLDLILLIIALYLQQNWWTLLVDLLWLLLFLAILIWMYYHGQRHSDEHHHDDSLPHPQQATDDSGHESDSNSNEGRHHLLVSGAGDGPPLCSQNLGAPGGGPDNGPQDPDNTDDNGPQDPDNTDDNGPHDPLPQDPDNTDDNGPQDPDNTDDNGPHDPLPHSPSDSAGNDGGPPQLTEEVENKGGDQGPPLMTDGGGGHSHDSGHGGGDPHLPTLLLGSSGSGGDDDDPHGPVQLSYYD
Chain of Glyceraldehyde-3-phosphate dehydrogenase (P04406 whole entry): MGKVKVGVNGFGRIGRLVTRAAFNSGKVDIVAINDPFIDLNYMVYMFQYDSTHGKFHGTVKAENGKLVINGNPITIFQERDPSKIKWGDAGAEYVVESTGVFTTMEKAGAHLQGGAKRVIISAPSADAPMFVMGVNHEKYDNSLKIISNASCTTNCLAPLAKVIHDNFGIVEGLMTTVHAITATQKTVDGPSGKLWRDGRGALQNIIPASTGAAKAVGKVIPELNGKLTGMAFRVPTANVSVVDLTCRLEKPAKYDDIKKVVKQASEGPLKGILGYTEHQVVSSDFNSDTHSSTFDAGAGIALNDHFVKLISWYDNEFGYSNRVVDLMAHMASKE

- IC50 [1]: > 100 µM (not active)
- IC50 [2]: > 100 µM (not active)
- IC50 [3]: > 100 µM (inactive)
- IC50 [4]: > 100 µM (inactive)
Compound: COCCCNc1nc(=O)n(-c2ccc(C)cc2)c(=O)[nH]1

Compound: CC1CCN(c2ccc3c(c2)S(=O)(=O)c2cccc(C(=O)NCc4ccc(F)cc4)c2C3=O)CC1
- EC50 [5]: > 99 µM (inactive)
- EC50 [6]: 38 µM (inactive)
- EC50 [7]: 5.16 µM (active)

Compound: COc1ccc(C(=O)C(CN2CCOCC2)c2ccccc2)cc1F (centres undefined)
- EC50 [8]: 5.54 µM (active)
- EC50 [9]: 8.65 µM (active)
- EC50 [10]: 2.19 µM (active)
- EC50 [11]: 1.31 µM (active)
- AC50 (HEK293): 13.2 µM (active)
- AC50 [12]: 5.06 µM (active)

Compound: Cc1oc2c(F)c(F)c(F)c(F)c2c1S(=O)(=O)Nc1cccc(C(F)(F)F)c1
- EC50 [13]: > 160 µM (inconclusive)
- EC50 [14]: 0.859 µM (active)
- EC50 [15]: 18.1 µM (active)
- AC50 [16]: 2.3 µM (active)
- EC50 [17]: 9.76 µM (active)
- EC50 [18]: 4.6 µM (active)
